Measurements from US20090280982A1, “Quinolinylmethyl Compounds” (BASF SE, priority 2006, published 2009).

How the values were obtained:
[1] = tested on: Green Peach Aphid (Myzus persicae); conditions: in vivo
Source text: II.2 Activity Against Green Peach Aphid (Myzus persicae)
The active compounds were formulated in 50:50 acetone:water and 100 ppm Kinetic™ surfactant.
Pepper plants in the 2nd leaf-pair stage (variety California Wonder) were infested with approximately 40 laboratory-reared aphids by placing infested leaf sections on top of the test plants. The leaf sections were removed after 24 hr. The leaves of the intact plants were dipped into gradient solutions of the test compound and allowed to dry. Test plants were maintained under fluorescent light (24 hour photoperiod) at about 25° C. and 20-40% relative humidity. Aphid mortality on the treated plants, relative to mortality on check plants, was determined after 5 days.

[2] = tested on: Brown Planthopper (nilaparvata lugens); test: Activity against brown planthopper (II.7); format: in vivo; conditions: for mortality [%] at 300 ppm: brown plant hopper (II.7)
Procedure: II.7 Activity Against Brown Planthopper (nilaparvata lugens)
The active compounds were formulated as a 20:80 acetone:water solution. Surfactant (Alkamuls EL 620) was added at the rate of 0.1% (vol/vol).
Potted rice plants of 3-4 weeks of age are sprayed with 10 ml of the test solution using air driven hand atomizer (Devillbis atomizer) at 1.7 bar. The treated plants are allowed to dry for about 1 hour and covered with Mylar cages. The plants are inoculated with 10 adults of the specie (5 male and 5 females) and kept at 25-27° C. and 50-60% humidity for 3 days. Mortality is assed after 24, 48 and 72 hours after treatment. Dead insects are usually found in the water surface. Each treatment is replicated once.

[3] = tested on: Diamond Back Moth (plutella xylostella); conditions: in vivo
Procedure: II.5 Activity Against Diamond Back Moth (plutella xylostella)
The active compounds were formulated in 50:50 acetone:water and 0.1% (vol/vol) Alkamuls EL 620 surfactant. A 6 cm leaf disk of cabbage leaves was dipped in the test solution for 3 seconds and allowed to air dry in a Petri plate lined with moist filter paper. The leaf disk was inoculated with 10 third instar larvae and kept at 25-27° C. and 50-60% humidity for 3 days. Mortality was assessed after 72 h of treatment.

[4] = tested on: Flea Beetle (Phylotretta striolata); test: Activity against flea beetle (II.19); format: in vivo; conditions: at 300 ppm; after 3 days; leaf disc dip
Procedure: II.19 Activity Against Flea Beetle (Phylotretta striolata)
Flea bettle (Phylotretta striolata) adults used for bioassay are obtained from a colony maintained continuously under laboratory conditions. For testing purposes, the test compound is diluted to a concentration of 300 ppm (wt compound: vol diluent) in a 1:1 mixture of acetone:water, plus 0.1% EL 620 surfactant.
Activity of each compound is evaluated using a […]. Glass petri dishes (60×15 mm) lined with moist filter paper serves as test arenas. All leaf discs are dipped into treatment solution for approximately 3 seconds and allowed to dry for 2 hours. Each treated leaf disc is placed into individual petri dishes and inoculated with 10 adult beetles. Petri dishes are then covered with lids. All test arenas are held under continuous light and a temperature of about 28° C. for duration of the assay. After 3 days, percent mortality is observed.

[5] = tested on: Rice Green Leaf Hoppers (Nephotettix virescens); test: Activity against rice green leaf hoppers (II.20); format: in vivo; conditions: at 300 ppm; after 72 hours; rice foliar spray
Procedure: II.20 Activity Against Rice Green Leaf Hoppers (Nephotettix virescens)
Leaf hopper adults used for bioassay are obtained from a colony maintained continuously under laboratory conditions. For testing purposes, the test compound is diluted in 300 ppm (wt compound:vol diluent) in a 1:1 mixture of acetone:water, plus 0.1% EL 620 surfactant.
Hopper activity is evaluated using the foliar spray technique. Potted rice plants (2-3 week old, Variety TN-1) are cleaned and dried prior to application. All plants are treated inside the fume hood using DeVilbiss atomizer at 25 psi with a spray volume of 5 ml/plant. To ensure uniform spray distribution, plants were placed in a rotating flat form inside the fume hood. Treated plants are then placed inside the holding room and allowed to dry for 2 hours. Each plant are caged using Mylar cages (4 inches diameter×19 inches in height) and inoculated with 10 adults hoppers. All test plants are held under continuous light and a temperature of about 28° C. for duration of the assay. Percent mortality is observed after 72 hours.

Compound | mortality [%] at 100 ppm [1] | mortality [%] at 300 ppm [1] | mortality in comparison with untreated controls ([2]; at 300 ppm, rice plants sprayed, up to 72 hours) | mortality [%] at 300 ppm [2] | mortality [%] at 300 ppm [3] | mortality [%] at 10 ppm [1] | mortality in comparison with untreated controls [4] | mortality in comparison with untreated controls [5]
O=S(=O)(NCc1ccnc2ccccc12)c1ccc(-c2ccc(OC(F)(F)F)cc2)c(F)c1 [Compound B14] | 90% | 90% |  |  |  |  |  | 
O=S(=O)(NCc1ccnc2ccccc12)c1ccc(-c2ccc(C(F)(F)F)cc2)c(C(F)(F)F)c1 [Compound B16] |  |  | at least 75% | 100% |  |  |  | 
O=S(=O)(NCc1ccnc2ccccc12)c1ccc(-c2ccc(C(F)(F)F)cc2)c(Cl)c1 [Compound B24] | 90% | 100% |  |  | 100% | 90% |  | 
O=S(=O)(NCc1ccnc2ccccc12)c1ccc(-c2ccc(C(F)(F)F)cc2Cl)cc1F [Compound B85] |  |  |  |  |  |  | at least 75% | at least 75%
O=S(=O)(NCc1ccnc2ccccc12)c1ccc(-c2ccc(OC(F)(F)F)cc2)cc1 [Compound C1, reference compound] | 0% | 60% |  |  |  |  |  | 
O=S(=O)(NCc1ccnc2ccccc12)c1ccc(-c2ccc(C(F)(F)F)cc2)cc1 [Compound C2, reference compound] | 60% | 100% |  | 0% | 0% | 0% |  | 
